Results reported in US20260317304A1, “TEAD INHIBITORS AND METHODS OF USE” (Sporos BioDiscovery, Inc., priority 2022, published 2026).

Legend:
[1] = tested on: NCI-H226 cells; assay: Proliferation and cell viability assay, CellTiter-Glo 2.0 (CTG); assay type: cell-based, human; settings: 144 hrs
Experimental: Cell proliferation of a TEAD dependent NF2-null mesothelioma cell line, NCI-H226 was assayed using two different protocols. Results were confirmed in two different TEAD-non-dependent lung cancer cell lines, H23 and H28, were used as non-responsive controls, as indicated:
a) CellTiter-Glo® 2.0 (Promega #G9243). The effect of the TEAD inhibitors disclosed herein on cell proliferation was determined in TEAD1-genetically dependent cell line NCI-H226 (responder cell line) and TEAD-independent cell lines (NCI-H23, HEK293T), as non-responder, negative control. Cells were seeded in 96-well plates (Thermo Scientific #167008) in growth media (RPMI-1640, Gibco #61870-010) for NCI-H226 and NCI-H23 or DMEM (Gibco #31966-021, HEK293T) with […] Heat Inactivated Fetal Bovine Serum (Gibco 10500-064) at 800 (NCI-H226 and HEK-293T) or 2000 (NCI-H23) cells per well at 37° C., […], humidified incubator; 24 hours later, fresh growth media containing test compound or DMSO vehicle was added and incubated with the cells for 144 hrs. TEAD inhibitor stocks were made at a 1000× fold excess in DMSO, and a dose response test compound dose range of 10,000 to 0.1 nM was used. Each treatment was carried out in triplicate. After 144 hrs of treatment, relative cell viability numbers were determined using the CellTiter-Glo 2.0 assay following the manufacturer's instructions. Test plates and CellTiter-Glo 2.0 reagent were allowed to equilibrate to room temperature. CellTiter-Glo 2.0 reagent was added at 1:1 reagent to media ratio to the 96-well cell plates, plates were placed on a plate shaker for 2 minutes and then incubated at room temperature for a further 10 minutes to allow complete cell lysis to occur. The mix was then transferred to white, 96-well luminometer assay plates (Greiner Bio One #655075). Luminescence was quantified using a CLARIOStar Plus multi-mode plate reader (BMG Labtech) in luminescence detection mode with the recommended settings (ultra-Glo pre-set: emission 545-50 nm with autofocus and enhanced dynamic range on). Relative cell density was expressed as a function of inhibitor concentration, with respect to DMSO-only control wells. Data where plotted using GraphPad Prism and IC50 values for the biological effect were calculated using the EC50 non-linear fit function using a sigmoidal, 4-parameter logistic, least squares fit with no constraints.
For IC50 and EC50 data “A” indicates a value of less than 0.2 μM; the symbol “B” indicates a value in the range of from 0.2 μM up to 1 μM; and the symbol “C” indicates a value of greater than 1 μM. ND: no data.

[2] = tested on: Mero82 cells; assay: Mero82 proliferation and cell viability assay (CTG); assay type: cell-based; settings: 144 hours
Experimental: Mero 82 cells were trypsinised, counted and plated at 400 cells/well in 200 μl of growth media in 96 well flat bottom tissue culture treated plates. The plated cells were incubated overnight at 37° C., 5% CO2 before being treated with compounds in triplicate for each assay point. 50 μl of the serially diluted compound was added to each well giving a final DMSO concentration of 0.5% per well and a total volume of 250 μl per well. The treated cells were incubated for 144 hours (6 days) at 37° C., 5% CO2. Following compound treatment, the remaining viable cells were detected using the Promega CellTiter-Glo 2.0 assay as follows: 150 μl of media was removed from each of the wells to be assayed and 100 μl of room temperature CellTiter-Glo 2.0 reagent was added. The plate was placed on an orbital shaker at 500 rpm at room temperature for 2 minutes, and then incubated without shaking for a further 10 minutes at room temperature. 150 μl of cell lysate was removed from each well and dispensed into a single well of a white opaque 96 well plate. Luminescence at 545 nm was read using a BMG CLARIOstar plate reader. The luminescent signal was directly proportional to number of viable cells, the percent of viable cells relative to the DMSO control was then calculated for each assay point. Percent viability relative to DMSO control was plotted against compound concentration and a curve fitted with non-linear regression in GraphPad Prism software. EC50 and absolute IC50 values were calculated using GraphPad Prism software as follows: For EC50 values, a non-constrained four-parameter logistic curve fit was used (Sigmoidal, 4PL, X is concentration). For Absolute IC50 values the baseline was constrained to Y=0 and top at 100 (Absolute IC50, X is concentration). Area Under the Curve (AUC): Prism computes area-under-the-curve by the trapezoidal method. The analysis sees a fitted curve as simply a series of connected XY points. Prism simply computes the area under the “curve” defined by connecting the points by straight lines. The units of the AUC are the units of the Y axis times units of the X axis.
(§1) For EC50 data, the symbol “A” indicates a value of less than 0.2 μM; the symbol “B” indicates a value in the range of from 0.2 μM up to 1 μM; and the symbol “C” indicates a value of greater than 1 μM.

[3] = tested on: Mero14 cells; assay: Mero14 proliferation and cell viability assay (CTG); assay type: cell-based; settings: 144 hours
Experimental: Mero14 cells were trypsinised, counted and plated at 400 cells/well in 200 μl of growth media in 96 well flat bottom tissue culture treated plates. The plated cells were incubated overnight at 37° C., 5% CO2 before being treated with compounds in triplicate for each assay point. 50 μl of the serially diluted compound was added to each well giving a final DMSO concentration of 0.5% per well and a total volume of 250 μl per well. The treated cells were incubated for 144 hours (6 days) at 37° C., 5% CO2. Following compound treatment the remaining viable cells were detected using the Promega CellTiter-Glo 2.0 assay as follows: 150 μl of media was removed from each of the wells to be assayed and 100 μl of room temperature CellTiter-Glo 2.0 reagent was added. The plate was placed on an orbital shaker at 500 rpm at room temperature for 2 minutes, and then incubated without shaking for a further 10 minutes at room temperature. 150 μl of cell lysate was removed from each well and dispensed into a single well of a white opaque 96 well plate. Luminescence at 545 nm was read using a BMG CLARIOstar plate reader. The luminescent signal was directly proportional to number of viable cells, the percent of viable cells relative to the DMSO control was then calculated for each assay point. Percent viability relative to DMSO control is plotted against compound concentration and a curve fitted with non-linear regression in GraphPad Prism software. EC50 and absolute IC50 values were calculated using GraphPad Prism software as follows: For EC50 values, a non-constrained four-parameter logistic curve fit was used (Sigmoidal, 4PL, X is concentration). For Absolute IC50 values the baseline was constrained to Y=0 and top at 100 (Absolute IC50, X is concentration). Area Under the Curve (AUC): Prism computed area-under-the-curve by the trapezoidal method. The analysis sees a fitted curve as simply a series of connected XY points. Prism simply computes the area under the “curve” defined by connecting the points by straight lines. The units of the AUC are the units of the Y axis times units of the X axis.
as §1

[4] = Homo sapiens, NCI-H226, responder cell line

EC50 [1, 4] [µM]	EC50 ([1]; responder cell line) [µM]	SMILES	EC50 [2] [µM]	EC50 [3] [µM]
< 0.2		Cn1cnc(-c2cc([C@@]3(C)CCNC3=O)ccc2Nc2ccc(C(F)(F)F)cc2)c1 (single isomer, unassigned) [Compound 5, 3-methyl-3-(3-(1-methyl-1H-imidazol-4-yl)-4-((4-(trifluoromethyl)phenyl)amino)phenyl)pyrrolidin-2-one]	< 0.2	< 0.2
< 0.2		Cn1nnc(-c2cc([C@]3(C)CCNC3=O)ccc2Nc2ccc(C(F)(F)F)cc2)n1 (stereo in doubt) [Compound 20, 3-methyl-3-(3-(2-methyl-2H-tetrazol-5-yl)-4-((4-(trifluoromethyl)phenyl)amino)phenyl) pyrrolidin-2-one]	< 0.2	< 0.2
		C=CC(=O)Nc1ccc(C)c(Oc2ccc(Cl)cc2)c1 [Compound 1-3, reference compound]	< 0.2	< 0.2
		FC(F)(F)c1ccc(CN2CCC(C3CC(Br)=NO3)CC2)cc1 (stereo not shown) [Compound 1-2, reference compound]	> 1	0.2 to 1
	< 0.2	Cn1cnc(-c2cc(C3(C)NC(=O)NC3=O)ccc2Nc2ccc(C(F)(F)F)cc2)c1 (single isomer, unassigned) [Compound 15, 5-methyl-5-(3-(1-methyl-1H-imidazol-4-yl)-4-((4-(trifluoromethyl)phenyl)amino)phenyl)imidazolidine-2,4-dione]	< 0.2	< 0.2
